From EP2045247B1, “Compounds for the inhibition of histone deacetylase” (NatureWise Biotech & Medicals Corporation, priority 2007, dated 2009)

Key:
[1] = system: breast cancer MCF-7 cells; assay: Inhibition of growth and change of morphology of MCF-7 cells; format: cell-based, human; conditions: 2.5, 5, 7.5 and 10 µg/mL; for morphology of MCF-7 cells: 72 hours (Fig. 13(A), Fig. 14(A)); for growth of MCF-7 cancer cells: sodium butyrate 4mM, observed and counted after 72 hours (Fig. 13, Fig. 14)
Description: The breast cancer MCF-7 cells, were cultured in Dulbecco's modified Eagle's medium (DMEM; Gibco) supplemented with penicillin G, streptomycin sulphate, 0.5 mM of L-glutamine and 10% fetal bovine serum (FBS; Gibco) at 37 °C, 5% CO2 and 95% relative humidity. The cells were seeded at a density of 3×10^5 per well of 6-well plates. After 24 hours, the cells were treated with different concentrations of compound NBM-HD-1 and 4mM sodium butyrate being used as the positive control. The cells were observed after 48 hours and counted after 96 hours. […] In Fig. 8(A), after the cells were incubated with 2.5 µg/mL (Fig. 8(A)-b), 5 µg/mL (Fig. 8(A)-c) and 10 µg/mL (Fig. 8(A)-d) of NBM-HD-1 for 48 hours, the density of MCF-7 cells reduced dramatically in comparison with that of the control group (Fig. 8(A)-a). The morphology of the MCF-7 cells in the experimental group changed in comparison with that in the control group. […] The results of the cell counting (FIG. 8(B)) indicate that, similar to sodium butyrate, NBM-HD-1 inhibits cell growth.
MCF-7 cancer cells were seeded at a density of 3×10^5 per well in 6-well plates. After 24 hours, the cells were treated with different concentrations of compound NBM-HD-2 and 4mM sodium butyrate being used as the positive control. The cells were observed and counted after 72 hours. […] In Fig. 13(A), after the cells were incubated with 2.5 µg/mL (Fig. 13(A)-c), 5 µg/mL (Fig. 13(A)-d), 7.5 µg/mL (Fig. 13(A)-e) and 10 µg/mL (Fig. 13(A)-f) of NBM-HD-2 for 72 hours, the density of MCF-7 cells reduced dramatically in comparison with that of the control group (Fig. 13(A)-a). The morphology of the MCF-7 cells in the experimental group changed in comparison with that in the control group.
MCF-7 cancer cells were seeded at a density of 3×10^5 per well of 6-well plates. After 24 hours, the cells were treated with different concentrations of compound NBM-HD-3 and 4mM sodium butyrate, which was being used as the positive control. The cells were observed and counted after 72 hours. […] In Fig. 14(A), after the cells were incubated with 2.5 µg/mL (Fig. 14(A)-c), 5 µg/mL (Fig. 14(A)-d), 7.5 µg/mL (Fig. 14(A)-e) and 10 µg/mL (Fig. 14(A)-f) of NBM-HD-3 for 72 hours, the density of MCF-7 cells reduced dramatically in comparison with that of the control group (Fig. 14(A)-a). The morphology of the MCF-7 cells in the experimental group changed in comparison with that in the control group. […] The results of the cell counting (FIG. 14(B)) indicate that, similar to sodium butyrate, NBM-HD-3 inhibits cell growth.

[2] = system: human giloblastoma DBTRG-05MG cancer cells; assay: Inhibition of growth and change of morphology of DBTRG-05MG cells; format: cell-based; conditions: NBM-HD-1 2.5, 5 and 10 µg/mL, sodium butyrate 4 mM; 72 hours; density and cell counting (Fig. 7)
Description: The human giloblastoma DBTRG-05MG cancer cells were cultured in RPMI medium 1640 (Gibco) supplemented with penicillin G, streptomycin sulphate, 0.5 mM of L-glutamine and 10% fetal bovine serum (FBS; Gibco), 100mh/L sodium pyruvate (Gibco), and 1% NEAA (Gibco) at 37 °C, 5% CO2 and 95% relative humidity. For these experiments, the cells were seeded at a density of 3×10^5 per well of 6-well plates. After 24 hours, the cells were treated with different concentrations of NBM-HD-1 and 4 mM sodium butyrate. The cells were observed and counted after 72 hours. […] In 05MG cells (Fig. 7(A)), after incubation with 2.5 µg/mL (Fig. 7(A)-b), 5 µg/mL (Fig. 7(A)-c) and 10 µg/mL (Fig.7(A)-d) of NBM-HD-1 for 72 hours, the density of the cells reduced dramatically in comparison with that of the control group (Fig. 7(A)-a). The 05MG cells in the experimental group also changed to become longer than those in the control group.

acetylated histone H4 = assay: Western blotting of hyperacetylated histone H4 in C6 glioma cell lysates; format: cell-based, rat; conditions: C6 glioma cells
Description: Accumulation of hyperacetylated histone H4 was analyzed in the cell lysates by using Western Blotting and the antibody directed against acetylated histone H4 (Upstate). The C6 glioma cells were seeded at a density of 1×10^6 per 10cm culture dish. After 24 hours, the cells were treated with 10 µg/mL of NBM-HD-1 or 4mM sodium butyrate for several hours. The whole-cell lysates were prepared by using denaturing SDS sample buffer and then separated on 15% SDS-polyacrylamide gels. […] The amount of acetylated histones was hardly detectable in untreated C6 glioma cells. The amount of acetylated histone H4 of the cells treated with 4mM sodium butyrate for 2 hours increased. Sodium butyrate was then removed from the culture medium. After 6 hours, the amount of acetylated histone H4 decreased. The accumulation of acetylated histone H4 increased in the cells treated with NBM-HD-1 for 2 hours. […] The highest histone acetylation appeared at 6 hours after the compound had been removed. […] Because NBM-HD-1 is more hydrophobic than sodium butyrate, NBM-HD-1 can be retained in the cells longer than sodium butyrate and continuously induce the acetylation of histone H4.

Compound | morphology of MCF-7 cells [1] | growth of MCF-7 cancer cells [1] | growth of 05MG cells [2] | accumulation of acetylated histone H4, treated for 2 hours (acetylated histone H4; 10 µg/mL NBM-HD-1 or 4mM sodium butyrate, 2 hours (Fig. 5)) | amount of acetylated histone H4 after removal of the compound from the culture medium (acetylated histone H4; up to 6 hours after removal (Fig. 5))
COc1cc2c(c(O)c1CC=C(C)C)C(=O)C[C@@H](c1ccc(OC)c(OC)c1C/C=C(\C)CCCC(C)(C)O)O2 [NBM-HD-2] | change their morphology | can inhibit the growth of MCF-7 cancer cells in a dose-dependent manner | – | – | –
COc1cc2c(c(O)c1CCC(C)(C)O)C(=O)C[C@@H](c1ccc(OC)c(OC)c1C/C=C(\C)CCCC(C)(C)O)O2 [NBM-HD-3] | change their morphology | can inhibit the growth of MCF-7 cancer cells in a dose-dependent manner | – | – | –
CCCC(=O)[O-].[Na+] [sodium butyrate, reference compound] | – | – | could inhibit the proliferation of 05MG cancer cells | increased | decreased
